Reference: article PMC9253272 (Frontiers in Pharmacology, 2022)
Structures can show the parent of a compound that is named as a salt. Where two headings read alike, the source gives them in different places.

Experiments:
BV-2 microglial cells [1] = details: BV-2 cells, 1 mM, 1 h pre-incubation, LPS 200 ng/ml
Description: (§1) In brief, 50 μl cell supernatants were mixed with 50 μl Griess regent in 96-well-plate and reacted for about 5–10 min at room temperature. Read plate at 540 nm by a Microplate reader (Infinite M200, Molecular Device).
Data were presented as mean ± SD, statistical analysis was performed with one-way ANOVA followed by a Dunnett’s post hoc tests, ^∗∗ p < 0.01 versus LPS group; ^## p < 0.01, versus LPS with SHY-treated group. […] Results are expressed as mean ± SD (n = 5). Data are presented as mean ± SD, statistical analysis was performed with one-way ANOVA, followed by a Dunnett’s post hoc tests, ^∗∗ p < 0.01 versus LPS group; ^# p < 0.05, versus LPS with SHY-treated group.

AMPK [2] = test: AMPK phosphorylation (p-AMPK Thr 172) by immunoblot in BV-2 microglial cells; assay type: cell-based; details: for onset time of AMPK activation: 1 mM, time course; for concentration at which activation of AMPK (p-AMPK) was observed (lowest effective): 1 h incubation
Description: When reached 80% confluence, cells were seeded in 12-well or 6-well plates to perform further experiments.

[3] = rat plasma, 50 mg/kg i.p.
BV-2 microglial cells [4] = test: Cellular pharmacokinetics: uptake of metformin into BV-2 microglia (LC-MS/MS); details: BV-2 cells
Description: (§2) The Michaelis-Menten equation with one saturable component was fit to the corrected uptake rate and the estimated Km and Vmax values are presented.

tMCAO rats = details: 50 mg/kg/day i.p., four weeks after tMCAO
[5] = system: primary rat cortical neurons; test: Oxygen and glucose deprivation (OGD) of primary cortical neurons, MTT viability; assay type: cell-based; details: 0.5 and 1 mM, 24 h pre-treatment, OGD 3 h, reperfusion 24 h
Description: The culture medium was replenished with Neurobasal medium (Life Technologies) supplemented with 2% B27 (Life Technologies) 5 h after isolation, and half of the culture media was changed every 2 days, after 6 days of culture, and the neurons were used for further experiments.
Cells were transferred to a hypoxia incubator with 1% oxygen and 5% CO2 for 3 h. […] Control cells were not submitted to OGD and were maintained under normal conditions.

AMPK [6] = details: initial screening; ref Zhen et al., 2019; cited from earlier work
BV-2 microglial cells [7] = test: LPS-induced nitrite release in BV-2 microglial cells (Griess reagent); assay type: cell-based; details: BV-2 cells; for IC50: pre-incubation 1 h (0.03-2.0 mM), then LPS 24 h
Description: as §1
Supernatants were collected for nitrite analysis.

[8] = system: rat primary cortical neurons; details: microglia treated with 1 mM, LPS 24 h; neurons 24 h
Description: Primary rat cortical microglia cells were prepared from newborn to 2–3 days-old SD strains. […] The supernatant was discarded after centrifuging at 1,100 × rpm for 10 min, the pellet was resuspended, and cortices were fully dissociated by pipetting, the cell suspension was filtered through a 70 μm mesh and transferred into a 75-cm^2 culture flask with poly-L-lysine (PLL, Sigma-Aldrich) coated. Flasks were incubated at 37°C and 5% CO2, and half of the culture media were changed every 2 days, after 2 weeks of culture, primary microglia were harvested by shaking the flask for 2 h at 200 × rpm, and then seeded into new plates pre-coated with PLL. […]
The neuron culture medium was collected and LDH was measured by the LDH assay kit (BioAssay Systems) according to the manufacturer’s instructions.
Data were presented as mean ± SD, statistical analysis was performed with one-way ANOVA followed by a Dunnett’s post hoc tests, ^∗∗ p < 0.01 versus LPS group; ^## p < 0.01, versus LPS with SHY-treated group. […] Results are expressed as mean ± SD (n = 5). […] Cell viability was analyzed by MTT assay, results are expressed as mean ± SD (n = 8). […]

in vivo [9] = details: male, Sprague-Dawley, rat, brain, 50 mg/kg
AMPK [10] = system: AMPK; design: method as in Ma et al., 2014; details: ref Ma et al., 2014; cited from earlier work
in vitro = details: mouse, BV-2 microglial cells
Description: as §2

in vivo [11] = details: male, Sprague-Dawley, rat, plasma, ip, 50 mg/kg
[12] = 15 min uptake, Michaelis-Menten fit
[13] = rat brain, metformin measured, 50 mg/kg i.p.

In the case of `CN(C)C(=N)NC(=N)N.O=C(O)[C@H](O)[C@@H](O)CO` [SHY-01, metformin threonate], the “inhibition of LPS-induced pro-inflammatory cytokine expression (TNF-α, IL-1β, iNOS) compared with metformin hydrochloride” value (BV-2 microglial cells [1]) is reported as “stronger effect”, the “p-AMPK level compared to the same concentration of metformin hydrochloride” value (AMPK [2]; BV-2 cells, 0.3 mM, 1 h) is reported as “significantly higher” and the “effect on LPS-reduced AMPK phosphorylation” value (AMPK [2]; BV-2 cells, 1 mM pre-incubation, LPS 200 ng/ml 0-4 h) is reported as “significantly reverse”. The “onset time of AMPK activation” value (AMPK [2]; BV-2 cells) was 0.5 h, the “concentration at which activation of AMPK (p-AMPK) was observed (lowest effective)” value (AMPK [2]; BV-2 cells) was 0.3 mM and the “time to activation of AMPK after treatment” value (AMPK [2]; discussion statement) was no more than 30 min. The “half-life (t 1/2)” value [3] was 8.22 ± 5.52 h, the “maximum plasma concentration (Cmax)” value [3] was 11.29 ± 3.9 ng/mL and the “AUC (0−t)” value ([3]; metformin measured) was 11470 ± 35 ng·h/mL. The “AUC (0−∞)” value ([3]; metformin measured) was 12240 ± 40 ng·h/mL, the CLz ([3]; metformin measured) was 4,116.73 ± 422.20 ml/hr/kg and the Cmax ([3]; metformin measured) was 11300 ± 3900 ng/mL. The “MRT (0−t)” value ([3]; metformin measured) was 2.69 ± 0.45 H, the “MRT (0−∞)” value ([3]; metformin measured) was 5.06 ± 2.54 H and the Vz ([3]; metformin measured) was 50,055.01 ± 36,787.23 ml/kg. The “t 1/2” value ([3]; metformin measured) was 8.22 ± 5.524 H, the t max ([3]; metformin measured) was 0.5 H and the “accumulation of metformin compared with the same concentration of metformin hydrochloride” value (BV-2 microglial cells [4]) was “more rapid”. The “Vmax of metformin uptake” value (BV-2 microglial cells [4]; [12]) was 9.5 ± 1.2 nmol/min/mg protein, the “intracellular metformin contents compared with metformin hydrochloride” value (BV-2 microglial cells [4]; LC-MS/MS) was “elevated intracellular metformin contents” and the Km (BV-2 microglial cells [4]; read-out: Km of metformin uptake, 15 min uptake, Michaelis-Menten fit) was 7.2 ± 1.5 mM. For the same molecule, the “metformin concentration in the brain” value (1 h after 50 mg/kg i.p.) was 0.32 ± 0.023 µg/g, the “metformin concentration in the brain” value (2 h after 50 mg/kg i.p.) was 0.25 ± 0.032 µg/g and the “AUC (0−t)” value [13] was 1870 ± 230 ng·h/mL. For the same molecule, the “AUC (0−∞)” value [13] was 2050 ± 180 ng·h/mL, the Cmax [13] was 520 ± 110 ng/mL and the “MRT (0−t)” value [13] was 5.73 ± 0.63 h. For the same molecule, the “MRT (0−∞)” value [13] was 8.19 ± 0.66 h, the t max [13] was 0.5 h and the “Rope climbing test, difference between SHY-01 and metformin hydrochloride” value (tMCAO rats) was “did not differ”. For the same molecule, the “atrophic volume of the ischemic brain versus vehicle” value (tMCAO rats) was “effectively reduced”, the “body weight changes, difference between SHY-01 and metformin hydrochloride” value (tMCAO rats) was “did not differ” and the “brain atrophy compared with metformin hydrochloride” value (tMCAO rats) was “more potent reduction”. For the same molecule, the “neurologic score compared with metformin hydrochloride” value (tMCAO rats) was “significantly better improvement”, the “spatial learning in the Morris water maze test compared with metformin hydrochloride” value (tMCAO rats) was “significantly better improvement” and the “OGD-induced neuronal injury (cell viability, MTT)” value [5] was “significantly prevented”. For the same molecule, the “potency on AMPK activation among the metformin salts screened” value (AMPK [6]) was “strongest potency”, the IC50 (BV-2 microglial cells [7]) was 302 µM and the “LDH release of neurons in response to conditioned medium of LPS-activated microglia, versus control or metformin hydrochloride” value [8] was “remarkably decrease”.
With `c1cc(-c2cnn3cc(-c4ccc(OCCN5CCCCC5)cc4)cnc23)ccn1` [compound C] the “effect on the inhibitory effect of SHY-01 on LPS-induced nitrite, TNF-α and IL-1β” value (BV-2 microglial cells [7]; compound C 10 μM 1 h pre-incubation, SHY-01 1 mM, LPS 200 ng/ml) was “abolished”.
`CN(C)C(=N)N=C(N)N` [metformin hydrochloride] showed a concentration at 1 h (in vivo [9]; intraperitoneal) of 190 ± 32 ng/g, a concentration at 2 h (in vivo [9]; intraperitoneal) of 110 ± 12 ng/g and an AUC(0-inf) (in vivo [9]; ip) of 1890 ± 80 ng·h/mL. The AUC(0-t) (in vivo [9]; ip) was 1600 ± 180 ng·h/mL, the Cmax (in vivo [9]; ip) was 320 ± 80 ng/g and the MRT inf (in vivo [9]; ip) was 12.2 ± 2.9 h. The MRT last (in vivo [9]; ip) was 7.71 ± 0.45 h, the t max (in vivo [9]; ip) was 0.5 h and the “onset time of AMPK activation” value (AMPK [2]; BV-2 cells) was 4 h. The “concentration at which activation of AMPK (p-AMPK) was observed (lowest effective)” value (AMPK [2]; BV-2 cells) was 1.0 mM, the CLz ([3]; metformin measured) was 7,068.89 ± 949.45 ml/hr/kg and the Cmax ([3]; metformin measured) was 6640 ± 2110 ng/mL. The Vz ([3]; metformin measured) was 79,683.93 ± 23,176.87 ml/kg, the “Vmax of metformin uptake” value (BV-2 microglial cells [4]; [12]) was 4.6 ± 0.6 nmol/min/mg protein and the “atrophic volume of the ischemic brain versus vehicle” value (tMCAO rats) was “effectively reduced”. The “treatment time required to activate AMPK” value (AMPK [10]) was no less than 4 h, the “OGD-induced neuronal injury (cell viability, MTT)” value [5] was “did not elicit such an effect” and the IC50 (BV-2 microglial cells [7]; Mus musculus) was 1070 µM. It also gave a Km at 15 min (in vitro) of 7.1 ± 1.7 mM, an AUC (in vivo [11]) of 7170 ± 275 ng·h/mL and an AUC(0-inf) (in vivo [11]) of 7170 ± 280 ng·h/mL. The AUC(0-t) (in vivo [11]) was 6590 ± 270 ng·h/mL, the Cmax (in vivo [11]) was 6630 ± 2100 ng/mL and the MRT inf (in vivo [11]) was 6.06 ± 1.73 h. For the same molecule, the MRT last (in vivo [11]) was 3.48 ± 0.65 h and the t max (in vivo [11]) was 0.5 h.
